Data: patent US20190322643A1 (Georgia State University Research Foundation, Inc., priority 2016, published 2019)

Experiments:
[1] = biological target: T1, Mouse histone methyltransferase G9a (969-1263) (Mus musculus, UniProt Q9Z148); experiment: MALDI-TOF methylation study of G9a inhibition; type: biochemical; conditions: inhibitors at 5 μM concentration for 30 min
T1 construct: The 6His-sumo mG9a (969-1263) protein was purified using the following procedure; 6His-sumo (cleaved yes); made in house; host or cells: Escherichia coli BL21 (DE3)
T1 sequence (Q9Z148 969-1263): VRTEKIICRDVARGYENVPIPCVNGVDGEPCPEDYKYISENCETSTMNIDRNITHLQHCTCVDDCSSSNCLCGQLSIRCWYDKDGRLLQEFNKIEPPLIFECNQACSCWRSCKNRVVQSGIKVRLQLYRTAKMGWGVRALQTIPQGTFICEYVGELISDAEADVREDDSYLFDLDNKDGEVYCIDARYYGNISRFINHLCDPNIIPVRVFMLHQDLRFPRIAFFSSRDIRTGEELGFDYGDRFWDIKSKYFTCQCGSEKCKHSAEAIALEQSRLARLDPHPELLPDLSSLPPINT
Procedure: Mouse histone methyltransferase G9a (969-1263) cDNA was amplified from the cDNA of BALB/c mouse thymus, and the fragment was sub-cloned into a vector with a 6His-sumo tag. […] The 6His-sumo mG9a (969-1263) protein was purified using the following procedure: harvested cell pellet was re-suspended in 20 mM Tris (pH 8.0), 500 mM NaCl, 0.1% β-mercaptoethanol, and 1 mM PMSF. Cells were lysed by sonicating for 15 seconds with 6 second intervals for a total time of 15 minutes on an ice bath. […] The 6His-sumo tag was cleaved from the column by adding Ubiquitin-like-specific protease 1 (ULP-1) at 4° C. for 12 hours. Wash buffer was then run through the Ni^+ column again and the elution buffer collected. Subsequently, advanced protein purification was done by HiTrap Q HP sequential Superdex 200 10/300 GL. Elute of every step was analyzed by SDS PAGE, stained by Coomassie brilliant blue (CBB). […] The reaction was incubated at room temperature for 30 min, and stopped by TFA. 1 μL of the sample was mixed with CHCA matrix and m/z peaks were obtained at reflection positive mode. The results of mass spectrum were analyzed using the Bruker flex analysis software and data processing was carried out as described below. MALDI-TOF based experiments were performed according to the protocol developed by Chang et al. (Nat. Struct. Mol. Biol. 2009, 16, 312-317). MALDI spectra were collected using Bruker flex control software and analyzed by flex analysis. After labelling each cluster peaks of H3K9Me0, H3K9Me1 and H3K9Me2 for all of the tested concentrations, area under the cluster (AUC) were extracted by using the same flex analysis software. % abundance of each peak was calculated by following formula: A=% Abundance of (H3K9Me0)=area of H3K9Me0/(area of H3K9Me0+area of H3K9Me1+area of H3K9Me2) B=% Abundance of (H3K9Me1)=area of H3K9Me1/(area of H3K9Me0+area of H3K9Me1+area of H3K9Me2) C=% Abundance of (H3K9Me2)=area of H3K9Me2/(area of H3K9Me0+area of H3K9Me1+area of H3K9Me2). This was repeated for each spectra (3 multiples for each samples). […] Finally % inhibition was found by subtracting % MA(i) from 100. […] A biochemical assay using MALDI-TOF was used to visualize the effects of the synthesized compounds on G9a enzymatic activity. […] Struct. Mol. Biol. 2009, 16, 312-317).

A549 = experiment: Cytotoxicity / anti-proliferation assay (CCK-8), A549; type: cell-based; conditions: Homo sapiens, 72 h, CCK-8 kit
Procedure: (§1) Then the cells were exposed to the different inhibitors with various concentrations for 72 h. […] EC50s were calculated using GraphPad Prizm statistical package with sigmoidal variable slope dose response curve fit.
(§2) Cell anti-proliferation assays were performed to determine the toxicity of these inhibitors. […] These compounds were further evaluated against the control cell line HEK293 to test their toxicity with a non-cancerous cell line.

HDAC [2] = experiment: Cell based homogenous HDAC assay, Hela; conditions: read-out: IC50-HDAC Hela; Hela cells, mean ± SD of triplicate
Procedure: (§3) After 24 h, 9 μl inhibitors with different concentration were added to the HeLa cells and incubation was continued for 3 h under cell culture conditions. After this treatment period, 10 μl of a 2 mM stock solution of the substrate Boc-K(Ac)-AMC was added into the 96 well plates with Hela cells and inhibitors. […] A549 and K562 cell lines used the same method, respectively. IC50s were calculated using GraphPad Prizm statistical package with sigmoidal variable slope dose response curve fit.
(§4) Boc-K(Ac)-AMC was used as a cell-permeable HDAC substrate, as after deacetylation it is cleaved by trypsin to release the florescent 7-amino-4-methylcoumarin (AMC).

HDAC [3] = experiment: Cell based homogenous HDAC assay, K562; conditions: read-out: IC50-HDAC K562; K562 cells, mean ± SD of triplicate
Procedure: as §3, §4

HDAC [4] = experiment: Cell based homogenous HDAC assay, A549; conditions: read-out: IC50-HDAC A549; A549 cells, mean ± SD of triplicate
Procedure: as §3, §4

G9a = biological target: T2, G9a (Homo sapiens, UniProt Q96KQ7); experiment: H3K9Me2 cell immunofluorescence in-cell Western (ICW) assay; type: cell-based; conditions: MDA-MB-231 cell line, 48 h
T2 construct: endogenous in cells; host or cells: MDA-MB-231
T2 sequence (Q96KQ7 1-1210): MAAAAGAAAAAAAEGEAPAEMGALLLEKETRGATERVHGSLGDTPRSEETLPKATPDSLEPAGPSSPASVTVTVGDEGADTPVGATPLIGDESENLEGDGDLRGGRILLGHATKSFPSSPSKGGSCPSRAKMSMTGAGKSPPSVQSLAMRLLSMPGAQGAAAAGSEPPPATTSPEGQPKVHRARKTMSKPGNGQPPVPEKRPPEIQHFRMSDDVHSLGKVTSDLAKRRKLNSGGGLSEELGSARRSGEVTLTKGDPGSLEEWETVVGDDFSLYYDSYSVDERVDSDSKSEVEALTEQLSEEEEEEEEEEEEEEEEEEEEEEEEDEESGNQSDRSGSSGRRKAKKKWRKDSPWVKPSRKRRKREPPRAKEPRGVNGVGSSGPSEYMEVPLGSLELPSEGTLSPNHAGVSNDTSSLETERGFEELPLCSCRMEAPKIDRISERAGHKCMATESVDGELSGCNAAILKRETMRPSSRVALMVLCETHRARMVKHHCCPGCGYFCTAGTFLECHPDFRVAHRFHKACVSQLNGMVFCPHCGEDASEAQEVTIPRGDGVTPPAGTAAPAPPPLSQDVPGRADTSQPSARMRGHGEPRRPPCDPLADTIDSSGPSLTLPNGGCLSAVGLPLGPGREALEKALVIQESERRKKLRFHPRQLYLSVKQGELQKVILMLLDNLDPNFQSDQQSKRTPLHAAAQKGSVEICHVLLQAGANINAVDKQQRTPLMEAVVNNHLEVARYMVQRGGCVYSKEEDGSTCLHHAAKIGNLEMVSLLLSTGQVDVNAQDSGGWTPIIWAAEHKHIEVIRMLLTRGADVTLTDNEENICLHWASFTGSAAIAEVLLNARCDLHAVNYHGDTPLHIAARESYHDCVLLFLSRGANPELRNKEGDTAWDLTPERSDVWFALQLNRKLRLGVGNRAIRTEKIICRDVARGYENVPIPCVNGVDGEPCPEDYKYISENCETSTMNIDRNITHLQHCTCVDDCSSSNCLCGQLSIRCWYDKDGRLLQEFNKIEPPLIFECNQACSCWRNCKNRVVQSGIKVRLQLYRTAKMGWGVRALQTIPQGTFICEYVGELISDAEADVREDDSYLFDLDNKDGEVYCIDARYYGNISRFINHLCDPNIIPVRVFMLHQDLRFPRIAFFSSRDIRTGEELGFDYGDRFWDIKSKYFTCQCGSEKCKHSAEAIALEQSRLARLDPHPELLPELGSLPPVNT
Procedure: After the incubation, the media was removed and 100 μl fixation and permeabilization solution (2% formaldehyde in PBS) for fixation was added for 30 min. And then use 200 μl 0.1% Triton X100 in PBS washing solution to wash (allow wash to shake on a plate shaker for 5 minutes). After five washes, cells were blocked for 1 h with 150 μl blocking buffer to each well (1% BSA in PBS) (allow blocking at RT with moderate shaking on a plate shaker). After 1 h, remove the blocking buffer from the blocking step and add primary antibody in blocking buffer to cover the bottom of each well. […] The plates were read on an Odyssey CLX (LiCor) scanner at both 800 nm (H3K9me2 signal) and 700 nm (cell tag 700 stain signal) channels. IC50s were calculated using GraphPad Prizm statistical package with sigmoidal variable slope dose response curve fit.

HCT-8 = experiment: Cytotoxicity / anti-proliferation assay (CCK-8), HCT-8; type: cell-based; conditions: Homo sapiens, 72 h, CCK-8 kit
Procedure: as §1, §2

Row | SMILES | inhibition at 5 µM [1] | EC50 (A549) | IC50 (HDAC [2]) | IC50 (HDAC [3]) | IC50 (HDAC [4]) | IC50 (G9a) | EC50 (HCT-8)
1 | COc1cc2nc(NCCNC(=O)CCCCC(=O)NO)nc(NC3CCN(C)CC3)c2cc1OC [Compound 6, N1-(2-((6,7-dimethoxy-4-((1-methylpiperidin-4-yl)amino)quinazolin-2-yl)amino)ethyl)-N6-hydroxyadipamide] | 26.6 ± 11.3% | > 100 µM | > 100 µM | > 100 µM | > 100 µM | > 100 µM | > 100 µM
2 | COc1cc2nc(NCCNC(=O)CCCCC(=O)NO)nc(NC3CCN(C(C)C)CC3)c2cc1OC [Compound 6a, N1-hydroxy-N6-(2-((4-((1-isopropylpiperidin-4-yl)amino)-6,7-dimethoxyquinazolin-2-yl)amino)ethyl)adipamide] | 50.6 ± 16.5% | > 100 µM | > 100 µM | > 100 µM | > 100 µM | > 100 µM | > 100 µM
3 | COc1cc2nc(NCCNC(=O)CCCC(=O)NO)nc(NC3CCN(C)CC3)c2cc1OC [Compound 7, N1-(2-((6,7-dimethoxy-4-((1-methylpiperidin-4-yl)amino)quinazolin-2-yl)amino)ethyl)-N5-hydroxyglutaramide] | 19.6 ± 20.9% | > 100 µM | > 100 µM | > 100 µM | > 100 µM | 76.7 ± 0.89 µM | > 100 µM
4 | COc1ccc2c(NC3CCN(C)CC3)nc(NCCNC(=O)CCCC(=O)NO)nc2c1 [Compound 16a, N1-hydroxy-N5-(2-((7-methoxy-4-((1-methylpiperidin-4-yl)amino)quinazolin-2-yl)amino)ethyl)glutaramide] | 40.3 ± 13.8% | > 100 µM | – | – | – | 45.7 ± 1.76 µM | > 100 µM
5 | COc1ccc2c(NC3CCN(C)CC3)nc(NCCNC(=O)CCCCC(=O)NO)nc2c1 [Compound 15a, N1-hydroxy-N6-(2-((7-methoxy-4-((1-methylpiperidin-4-yl)amino)quinazolin-2-yl)amino)ethyl)adipamide] | 69.1 ± 24.5% | > 100 µM | – | – | – | 47 ± 3.33 µM | > 100 µM
6 | COc1ccc2c(NC3CCN(C)CC3)nc(NCCNC(=O)CCCCCC(=O)NO)nc2c1 [Compound 14a, N1-hydroxy-N7-(2-((7-methoxy-4-((1-methylpiperidin-4-yl)amino)quinazolin-2yl)amino)ethyl) heptanediamide] | 29.7 ± 23.3% | > 100 µM | – | – | – | 46.8 ± 1.97 µM | > 100 µM
7 | COc1cc2nc(N3CCCN(C)CC3)nc(NC3CCN(C(=O)CCCCCCC(=O)NO)CC3)c2cc1OC [Compound 19, 8-(4-((6,7-dimethoxy-2-(4-methyl-1,4-diazepan-1-yl)quinazolin-4-yl)amino)piperidin-1-yl)-N-hydroxy-8-oxooctanamide] | 10.7 ± 25.9% | > 100 µM | – | – | – | 99.6 ± 3.13 µM | > 100 µM
8 | COc1ccc2c(NCCNC(=O)CCCCCCC(=O)NO)nc(N3CCCN(C)CC3)nc2c1 [Compound 21, N1-hydroxy-N8-(2-((7-methoxy-2-(4-methyl-1,4-diazepan-1-yl)quinazolin-4 yl)amino)ethyl)octanediamide] | 22.8 ± 26.7% | > 100 µM | – | – | – | – | > 100 µM
9 | COc1cc2nc(N3CCCN(C)CC3)nc(NC3CCN(C(=O)CCCCCC(=O)NO)CC3)c2cc1OC [Compound 20, 7-(4-((6,7-dimethoxy-2-(4-methyl-1,4-diazepan-1-yl)quinazolin-4-yl)amino)piperidin-1-yl)-N-hydroxy-7-oxoheptanamide] | 14.6 ± 15.8% | > 100 µM | – | – | – | 97.5 ± 2.78 µM | > 100 µM
10 | COc1ccc2c(NC3CCN(Cc4ccccc4)CC3)nc(NCCNC(=O)CCCC(=O)NO)nc2c1 [Compound 16, N1-(2-((4-((1-benzylpiperidin-4-yl)amino)-7-methoxyquinazolin-2-yl)amino)ethyl)-N5-hydroxyglutaramide] | 40.3 ± 13.8% | – | – | – | – | 90.3 ± 3.75 µM | 83.9 µM
11 | COc1ccc2c(NCCNC(=O)CCCCCC(=O)NO)nc(N3CCCN(C)CC3)nc2c1 [Compound 22, N1-hydroxy-N7-(2-((7-methoxy-2-(4-methyl-1,4-diazepan-1-yl)quinazolin-4-yl)amino)ethyl)heptanediamide] | 40.3 ± 15.3% | > 100 µM | – | – | – | 60.6 ± 3.66 µM | > 100 µM
12 | COc1ccc2c(NC3CCN(Cc4ccccc4)CC3)nc(NCCNC(=O)CCCCC(=O)NO)nc2c1 [Compound 15, N1-(2-((4-((1-benzylpiperidin-4-yl)amino)-7-methoxyquinazolin-2-yl)amino)ethyl)-N6-hydroxyadipamide] | 47.9 ± 12.9% | > 100 µM | – | – | – | 72.1 ± 1.37 µM | > 100 µM
